From ChEMBL document CHEMBL4138057, “Structure-guided optimization of quinoline inhibitors of Plasmodium N-myristoyltransferase” (Medchemcomm, 2017)
pKi: −log10 of the molar value.

Molecular target: T1, Glycylpeptide N-tetradecanoyltransferase (Plasmodium falciparum (isolate 3D7), UniProt Q8ILW6)
T1 sequence (Q8ILW6 whole entry): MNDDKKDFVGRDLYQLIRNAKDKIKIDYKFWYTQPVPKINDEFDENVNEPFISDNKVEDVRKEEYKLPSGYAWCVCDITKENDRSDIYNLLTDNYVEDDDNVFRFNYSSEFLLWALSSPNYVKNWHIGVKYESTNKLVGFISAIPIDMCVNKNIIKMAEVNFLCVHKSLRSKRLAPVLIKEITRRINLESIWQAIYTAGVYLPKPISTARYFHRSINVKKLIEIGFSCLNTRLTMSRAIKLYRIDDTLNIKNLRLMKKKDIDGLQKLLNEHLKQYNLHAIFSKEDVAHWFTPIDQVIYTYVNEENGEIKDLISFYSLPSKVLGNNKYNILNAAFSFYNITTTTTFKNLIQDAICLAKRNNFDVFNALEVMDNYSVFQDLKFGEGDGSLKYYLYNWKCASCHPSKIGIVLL
Test: Inhibition of Plasmodium falciparum NMT preincubated for 10 to 20 mins followed by Hs pp60src (2 to 16 residues) substrate addition measured after 60 mins by CPM-based fluorescence assay
Conditions: read-out: Ki(app)

Compound | pKi
CCOC(=O)c1cnc2ccc(OCc3ccccc3)cc2c1SCCC#N | < 5.00
CCOC(=O)c1cnc2ccc(OCc3ccccc3)cc2c1S(=O)(=O)CC | < 5.00
CCSc1c(CO)cnc2ccc(OCc3ccccc3)cc12 | < 5.00
